According to patent US12448400B2, “KRAS G12D modulating compounds” (priority 2023, dated 2025):
Where two headings read alike, the source gives them in different places.

System: GP2D (KRAS G12D) cells
Experiment: 2D cell viability assay (CellTiter-Glo)
Type: cell-based
Settings: GP2D cells, 4 days, CellTiter-Glo luminescence, read-out: G12D 2D EC50
Method: Example B. 2D Cell Viability Assay
Compounds were tested in a 384-well format for their ability to inhibit the viability of GP2D (KRAS G12D) cells in 2D assays. Compounds were serially diluted (1:3) in DMSO. The LabCyte ECHO Acoustic dispenser system was used to pre-spot assay plates with 200 nL of test molecule per well. 1000 cells/well (40 μL volume per well) in RPMI medium with 10% FBS, and Penicillin-Streptomycin-Glutamine were plated in pre-spotted 384-well plates (Greiner, Catalog #781076) on the BioTEK EL406 liquid dispenser with a 5 μL dispensing cassette (BioTek 7170011). The plates were incubated at 37° C., 5% CO2 for 4 days before addition of CellTiter-Glo (CTG) reagent and measurement of luminescence signal. EC50 values were defined as the compound concentration that causes a 50% decrease in luminescence signal and were calculated using a sigmoidal dose-response model to generate curve fits.

| SMILES | EC50 (96 h) [nM] | EC50 [nM] |
| --- | --- | --- |
| C#Cc1c(F)ccc2cc(O)cc(-c3nc4c5c(nc(OC[C@@]67CCCN6C[C@H](F)C7)nc5c3F)N3C[C@H]5CC[C@@H]([C@H]3CCC4)N5Cc3oc(=O)oc3CC)c12 [Example 40, 4-ethyl-5-(((6aR,7S,10R)-2-(8-ethynyl-7-fluoro-3-hydroxynaphthalen-1-yl)-1-fluoro-13-(((2R,7aS)-2-fluorotetrahydro-1H-pyrrolizin-7a(5H)-yl)methoxy)-5,6,6a,7,8,9,10,11-octahydro-4H-3,11a,12,14,15-pentaaza-7,10-methanocyclohepta[4,5]cycloocta[1,2,3-de]naphthalen-15-yl)methyl)-1,3-dioxol-2-one] | 0.22 |  |
| C#Cc1c(F)ccc2cc(O)cc(-c3nc4c5c(nc(OC[C@@]67CCCN6C[C@H](F)C7)nc5c3F)N3C[C@H]5CC[C@@H]([C@H]3CCC4)N5Cc3oc(=O)oc3CCC)c12 [Example 41, 4-(((6aR,7S,10R)-2-(8-ethynyl-7-fluoro-3-hydroxynaphthalen-1-yl)-1-fluoro-13-(((2R,7aS)-2-fluorotetrahydro-1H-pyrrolizin-7a(5H)-yl)methoxy)-5,6,6a,7,8,9,10,11-octahydro-4H-3,11a,12,14,15-pentaaza-7,10-methanocyclohepta[4,5]cycloocta[1,2,3-de]naphthalen-15-yl)methyl)-5-propyl-1,3-dioxol-2-one] | 0.18 |  |
| C#Cc1c(F)ccc2cc(OCc3oc(=O)oc3C(C)(C)C)cc(-c3nc4c5c(nc(OC[C@@]67CCCN6C[C@H](F)C7)nc5c3F)N3C[C@H]5CC[C@H](N5)[C@@H]3[C@@H](C)C4)c12 [Example 67, 4-(tert-butyl)-5-(((5-ethynyl-6-fluoro-4-((5S,5aS,6S,9R)-1-fluoro-12-(((2R,7aS)-2-fluorotetrahydro-1H-pyrrolizin-7a(5H)-yl)methoxy)-5-methyl-4,5,5a,6,7,8,9,10-octahydro-3,10a,11,13,14-pentaaza-6,9-methanonaphtho[1,8-ab]heptalen-2-yl)naphthalen-2-yl)oxy)methyl)-1,3-dioxol-2-one] | 1.3 |  |
| C#Cc1c(F)ccc2cc(O)cc(-c3nc4c5c(nc(OCC67CCCN6C(COC(C(F)(F)F)(C(F)(F)F)C(F)(F)F)CC7)nc5c3F)N3CC5CCC(C3CC4)N5Cc3oc(=O)oc3C)c12 [Example 68, 4-(((8aR,9S,12R)-5-(8-ethynyl-7-fluoro-3-hydroxynaphthalen-1-yl)-4-fluoro-2-(((3S,7aS)-3-(((1,1,1,3,3,3-hexafluoro-2-(trifluoromethyl)propan-2-yl)oxy)methyl)tetrahydro-1H-pyrrolizin-7a(5H)-yl)methoxy)-7,8,8a,9,10,11,12,13-octahydro-1,3,6,13a,14-pentaaza-9,12-methanonaphtho[1,8-ab]heptalen-14-yl)methyl)-5-methyl-1,3-dioxol-2-one] |  | 0.65 |
| C#Cc1c(F)ccc2cc(N)cc(-c3nc4c5c(nc(OC[C@@]67CCCN6C[C@H](F)C7)nc5c3F)N3C[C@H]5CC[C@@H]([C@H]3CCC4)N5Cc3oc(=O)oc3-c3ccccc3)c12 [Example 69, 4-(((6aR,7S,10R)-2-(3-amino-8-ethynyl-7-fluoronaphthalen-1-yl)-1-fluoro-13-(((2R,7aS)-2-fluorotetrahydro-1H-pyrrolizin-7a(5H)-yl)methoxy)-5,6,6a,7,8,9,10,11-octahydro-4H-3,11a,12,14,15-pentaaza-7,10-methanocyclohepta[4,5]cycloocta[1,2,3-de]naphthalen-15-yl)methyl)-5-phenyl-1,3-dioxol-2-one] | 0.48 |  |
| C#Cc1c(F)ccc2cc(NCc3oc(=O)oc3C)cc(-c3nc4c5c(nc(OC[C@@]67CCCN6C[C@H](F)C7)nc5c3F)N3C[C@H]5CC[C@@H]([C@H]3CCC4)N5Cc3oc(=O)oc3C)c12 [Example 70, 4-(((5-ethynyl-6-fluoro-4-((6aR,7S,10R)-1-fluoro-13-(((2R,7aS)-2-fluorotetrahydro-1H-pyrrolizin-7a(5H)-yl)methoxy)-15-((5-methyl-2-oxo-1,3-dioxol-4-yl)methyl)-5,6,6a,7,8,9,10,11-octahydro-4H-3,11a,12,14,15-pentaaza-7,10-methanocyclohepta[4,5]cycloocta[1,2,3-de]naphthalen-2-yl)naphthalen-2-yl)amino)methyl)-5-methyl-1,3-dioxol-2-one] | 0.31 |  |
| C#Cc1c(F)ccc2cc(O)cc(-c3nc4c5c(nc(OC[C@@]67CCCN6C[C@H](F)C7)nc5c3F)N3C[C@H]5CC[C@@H]([C@H]3CCC4)N5Cc3oc(=O)oc3-c3ccccc3)c12 [Example 72, 4-(((6aR,7S,10R)-2-(8-ethynyl-7-fluoro-3-hydroxynaphthalen-1-yl)-1-fluoro-13-(((2R,7aS)-2-fluorotetrahydro-1H-pyrrolizin-7a(5H)-yl)methoxy)-5,6,6a,7,8,9,10,11-octahydro-4H-3,11a,12,14,15-pentaaza-7,10-methanocyclohepta[4,5]cycloocta[1,2,3-de]naphthalen-15-yl)methyl)-5-phenyl-1,3-dioxol-2-one] | 0.11 |  |
| C#Cc1c(F)ccc2cc(O)cc(-c3nc4c5c(nc(OC[C@]6(C)CN(C)CC[C@@H]6C(F)F)nc5c3F)N3C[C@H]5CC[C@@H]([C@H]3CCC4)N5Cc3oc(=O)oc3C)c12 [Example 74, 4-(((6aR,7S,10R)-13-(((3S,4S)-4-(difluoromethyl)-1,3-dimethylpiperidin-3-yl)methoxy)-2-(8-ethynyl-7-fluoro-3-hydroxynaphthalen-1-yl)-1-fluoro-5,6,6a,7,8,9,10,11-octahydro-4H-3,11a,12,14,15-pentaaza-7,10-methanocyclohepta[4,5]cycloocta[1,2,3-de]naphthalen-15-yl)methyl)-5-methyl-1,3-dioxol-2-one] | 0.06 |  |
| [2H]C([2H])([2H])N1CC[C@H](C(F)F)[C@](C)(C([2H])([2H])Oc2nc3c4c(nc(-c5cc(O)cc6ccc(F)c(C#C)c56)c(F)c4n2)CCC[C@@H]2[C@@H]4CC[C@H](CN32)N4Cc2oc(=O)oc2C)C1 [Example 75, 4-(((6aR,7S,10R)-13-(((3S,4S)-4-(difluoromethyl)-3-methyl-1-(methyl-d3)piperidin-3-yl)methoxy-d2)-2-(8-ethynyl-7-fluoro-3-hydroxynaphthalen-1-yl)-1-fluoro-5,6,6a,7,8,9,10,11-octahydro-4H-3,11a,12,14,15-pentaaza-7,10-methanocyclohepta[4,5]cycloocta[1,2,3-de]naphthalen-15-yl)methyl)-5-methyl-1,3-dioxol-2-one] | 0.08 |  |
| C#Cc1c(F)ccc2cc(N)cc(-c3nc4c5c(nc(OC[C@]6(C)CN(C)CC[C@@H]6C(F)F)nc5c3F)N3C[C@H]5CC[C@@H]([C@H]3CCC4)N5Cc3oc(=O)oc3C)c12 [Example 76, 4-(((6aR,7S,10R)-2-(3-amino-8-ethynyl-7-fluoronaphthalen-1-yl)-13-(((3S,4S)-4-(difluoromethyl)-1,3-dimethylpiperidin-3-yl)methoxy)-1-fluoro-5,6,6a,7,8,9,10,11-octahydro-4H-3,11a,12,14,15-pentaaza-7,10-methanocyclohepta[4,5]cycloocta[1,2,3-de]naphthalen-15-yl)methyl)-5-methyl-1,3-dioxol-2-one] | 0.89 |  |
